Results published in US12715896B2 (priority 2020, dated 2026).
Non-standard residues stand in square brackets, D forms with d. Residues, ends and D or L forms follow the SMILES beside them. ξ: configuration not given here. *: point of attachment. Nle = CCCC[C@H](N)C(=O)O; Nva = CCC[C@H](N)C(=O)O; Cbz = O=C(OCc1ccccc1)*; ξI = CCC(C)C(N)C(=O)O; OtBu = CC(C)(C)O*

Legend:
EV-A71 2A protease = EV-A71 2A protease (Human enterovirus 71, UniProt Q66478); test: biochemical; details: for IC50: read-out: EVA71 2A IC50
EV-A71 3C protease = EV-A71 3C protease (Human enterovirus 71, UniProt Q66478); test: biochemical
SARS-CoV 3CL^pro = SARS-CoV 3CL^pro (Severe acute respiratory syndrome coronavirus, UniProt P0C6X7); details: read-out: IC50 against the SARS-CoV 3CL^pro; cited from earlier work
in vitro [1] = test: in vitro
SARS-CoV-2 = test: Antiviral CPE assay against SARS-CoV-2; assay type: cell-based; details: Severe acute respiratory syndrome coronavirus 2
MERS-CoV = test: microbe, parasite or virus in culture; details: Middle East respiratory syndrome-related coronavirus, read-out: EC50 against MERS-CoV
SARS-CoV = test: microbe, parasite or virus in culture; details: Severe acute respiratory syndrome coronavirus, read-out: EC50 against SARS-CoV
[2] = Cytotoxicity CPE assay (neutral red), Caco-2; assay type: cell-based; details: human, Caco-2 cells, mean ± S.E.
[3] = Cellular cytotoxicity in multiple cell lines; details: human, dog, African green monkey
[4] = Cytotoxicity CPE assay (neutral red), BEAS2B; assay type: cell-based; details: human, BEAS2B cells, mean ± S.E.
[5] = Cytotoxicity CPE assay (neutral red), A549; assay type: cell-based; details: human, A549 cells, mean ± S.E.
[6] = Antiviral CPE assay against SARS-CoV-2; assay type: cell-based
[7] = Cytotoxicity CPE assay (neutral red), HCT-8; assay type: cell-based; details: human, HCT-8 cells, mean ± S.E.
[8] = Cytotoxicity CPE assay (neutral red), Vero; assay type: cell-based; details: African green monkey, Vero cells, mean ± S.E.
[9] = Cytotoxicity CPE assay (neutral red), MDCK; assay type: cell-based; details: dog, MDCK cells, mean ± S.E.
[10] = system: A/California/07/2009 (H1N1); test: Counter screening against influenza virus in plaque assay; assay type: cell-based; details: read-out: Antiviral activity against A/California/07/2009 (H1N1)
in vitro [11] = test: in vitro; remark: listed apart in the source

EV-A71 3C protease, sequence (Q66478 1549-1731): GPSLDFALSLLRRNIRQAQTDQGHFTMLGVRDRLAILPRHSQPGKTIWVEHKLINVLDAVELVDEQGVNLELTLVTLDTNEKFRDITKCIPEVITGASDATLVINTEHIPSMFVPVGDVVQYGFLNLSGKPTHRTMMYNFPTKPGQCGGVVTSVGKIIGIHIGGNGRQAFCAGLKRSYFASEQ
EV-A71 2A protease, sequence (Q66478 863-1012): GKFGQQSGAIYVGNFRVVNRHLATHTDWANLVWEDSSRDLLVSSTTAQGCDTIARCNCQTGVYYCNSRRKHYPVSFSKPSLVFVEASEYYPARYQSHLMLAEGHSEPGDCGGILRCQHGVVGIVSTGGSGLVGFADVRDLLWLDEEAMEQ

| Compound | IC50 (EV-A71 2A protease) [µM] | IC50 (EV-A71 3C protease) [µM] | CC50 (in vitro [1]) [µM] | EC50 (SARS-CoV-2) [µM] | EC50 (MERS-CoV) [µM] | EC50 (SARS-CoV) [µM] | EC50 [10] [µM] | further results |
| --- | --- | --- | --- | --- | --- | --- | --- | --- |
| CCCC[C@H](NC(=O)[C@@H]1[C@@H]2[C@H](CN1C(=O)[C@@H](NC(=O)NC1(CS(=O)(=O)C(C)(C)C)CCCCC1)C(C)(C)C)C2(C)C)C(=O)C(=O)NC1CC1 [Narlaprevir (29), Narlaprevir] | > 20 | > 20 |  |  |  |  |  |  |
| CCCC[C@@H](C=O)NC(=O)[C@H](CC(C)C)NC(=O)OCc1ccccc1 [Calpeptin (56), Calpeptin] | > 20 | > 20 |  |  |  |  |  |  |
| CCOC(=O)/C=C/[C@H](C[C@@H]1CCNC1=O)NC(=O)[C@@H](CC(=O)[C@@H](NC(=O)c1cc(C)on1)C(C)C)Cc1ccc(F)cc1 [Rupintrivir (65), Rupintrivir] | > 20 | 0.042 ± 0.014 |  |  |  |  |  | IC50 (SARS-CoV 3CL^pro): > 100 µM; activity against the EV-A71 2A protease (EV-A71 2A protease): not active; inhibition against the EV-A71 3C protease (EV-A71 3C protease): potent inhibition |
| CCCC[C@@H](C=O)NC(=O)[C@H](CC(C)C)NC(=O)[C@H](CC(C)C)NC(C)=O [Calpain inhibitor 1 (ALLN) (59), Calpain inhibitor 1] (Ac-Leu-Leu-[Nle]-aldehyde) | > 20 | > 20 |  |  |  |  |  |  |
| CC(C)C[C@@H](C=O)NC(=O)[C@H](CC(C)C)NC(=O)[C@H](CC(C)C)NC(=O)OCc1ccccc1 [MG-132 (43), MG-132] (Cbz-Leu-Leu-Leu-aldehyde) | > 20 | > 20 | > 0.7 | 0.87 | > 10 | > 0.7 |  |  |
| CCC[C@H](NC(=O)[C@H](CC(C)C)NC(=O)OCc1ccccc1)C(=O)C(=O)NCc1ccccn1 [Calpain inhibitor XII (62), Calpain inhibitor XII] | > 20 | > 20 |  | 0.3 | 7.9 | 7.4 | > 20 | CC50 at 48 h [2]: 82.02 ± 0.37 µM; CC50 at 48 h [3]: > 50 µM; CC50 at 48 h [4]: 78.9 ± 13.7 µM; CC50 at 48 h [5]: > 100 µM; CC50 [6]: > 50 µM; CC50 at 48 h [7]: 73.3 ± 11.8 µM; CC50 at 48 h [8]: > 100 µM; CC50 at 48 h [9]: 60.4 ± 2.28 µM |
| CC(C)C[C@@H](C=O)NC(=O)[C@@H](NS(=O)(=O)c1ccc(F)cc1)C(C)C [Calpain inhibitor VI (58), Calpain inhibitor VI] |  | > 20 |  |  |  |  |  |  |
| CC(C)(C)NC(=O)N[C@H](C(=O)N1C[C@H]2[C@@H]([C@H]1C(=O)NC(CC1CCC1)C(=O)C(N)=O)C2(C)C)C(C)(C)C (some centres unmarked) [Boceprevir (28), Boceprevir] | > 20 | > 20 | > 47 | 1.9 | > 100 | > 47 | > 20 |  |
| CSCC[C@@H](C=O)NC(=O)[C@H](CC(C)C)NC(=O)[C@H](CC(C)C)NC(C)=O [Calpain inhibitor II (61), Calpain inhibitor II] (Ac-Leu-Leu-Met-aldehyde) | > 20 | > 20 | > 100 | 1.2 | 14 | 3.6 | > 20 | CC50 at 48 h [2]: > 100 µM; CC50 at 48 h [3]: > 100 µM; CC50 at 48 h [4]: > 100 µM; CC50 at 48 h [5]: > 100 µM; CC50 (in vitro [11]): > 100 µM; CC50 [6]: > 100 µM; CC50 at 48 h [7]: > 100 µM; CC50 at 48 h [8]: > 100 µM; CC50 at 48 h [9]: > 100 µM |
| CCC[C@@H](C=O)NC(=O)[C@H](CC(C)C)NC(=O)[C@H](CC(C)C)NC(=O)OCc1ccccc1 [MG-115 (60), MG-115] (Cbz-Leu-Leu-[Nva]-aldehyde) | > 20 | > 20 |  |  |  |  |  |  |
| CC(C)C[C@H](NC(=O)OCc1ccccc1)C(=O)N[C@@H](C[C@@H]1CCNC1=O)C(O)S(=O)(=O)[O-].[Na+] (some centres unmarked) [GC-376 (64), GC-376] | > 20 | 0.136 ± 0.025 | > 100 | 1.9 | […] | […] | > 20 | CC50 at 48 h [2]: > 100 µM; CC50 at 48 h [3]: > 100 µM; CC50 at 48 h [4]: > 100 µM; CC50 at 48 h [5]: > 100 µM; CC50 (in vitro [11]): > 100 µM; CC50 [6]: > 100 µM; CC50 at 48 h [7]: > 100 µM; CC50 at 48 h [8]: > 100 µM; activity against the EV-A71 2A protease (EV-A71 2A protease): not active; CC50 at 48 h [9]: > 100 µM; inhibition against the EV-A71 3C protease (EV-A71 3C protease): potent inhibition |
| CCC(C)C(NC(=O)OCc1ccccc1)C(=O)N[C@@H](CCC(=O)OC(C)(C)C)C(=O)N[C@@H](C)C(=O)N[C@H](C=O)CC(C)C (some centres unmarked) [PSI (63), PSI] (Cbz-[ξI]E(OtBu)AL-aldehyde) | 1.22 | 13.7 ± 3.86 |  |  |  |  |  |  |
